Earlier results, collected in US12403129B2, “Isotope-enriched 3-amino-1-propanesulfonic acid derivatives for the treatment of cerebrovascular disease” (RISEN (SUZHOU) PHARMA TECH CO., LTD., priority 2021, dated 2025).
“Also recorded” adds a separate entry of the source.

Details: cited from earlier work
[1] = 2-h time point, oral, 0.72 mmol/kg

Which “concentration of metabolite (2-carboxy-1-ethanesulfonic acid) in plasma compared to 3APS (of natural abundance)” value [1] does the source give for `[2H]C([2H])(N)CCS(=O)(=O)O` [compound 1, 3-amino-3,3-dideuterium-1-propanesulfonic Acid] here?
The value was “much lower”.

What about the “plasma drug concentration compared to 3APS (of natural abundance)” value [1] of the same compound?
The value was “higher”.

What about the “plasma drug exposure compared to 3APS (of natural abundance)” value (mole-equivalent oral dose (0.72 mmol/kg), mouse plasma) of the same compound?
Its value is “improved plasma drug exposure significantly”.

What about the “drug metabolism / metabolic profile compared to 3APS” value (mole-equivalent oral dose, mouse) of the same compound?
The value was “delayed drug metabolism; also recorded: delayed metabolic profile”.
